Measurements as given in patent US20200163984A1, “USE OF ISOVALERYL SPIRAMYCIN I, II AND/OR III IN MANUFACTURING MEDICAMENT FOR TREATING AND/OR PREVENTING TUMOR, AND MEDICAMENT” (SHENYANG FUYANG PHARMACEUTICAL TECHNOLOGY CO., LTD., priority 2017, published 2020).
In brackets after ≈: the same amount, converted by molar mass.

Assays:
[1] = tested on: human colon cancer cell HT-29; conditions: HT-29, MTT, 48 hours
Method: (§1) The purpose of the assay is to evaluate the in vitro cell proliferation inhibition or cytotoxic activity of a tested sample.
(§2) MCF-7, MDA-MB-231, HepG2, A549, H460, H1299, 786-0, 769-P, U251, A172, HeLa, PC3, PANC-1, TE-1, SGC7901, and HT-29 were adherent tumor cells. The adherent tumor cells in the logarithmic growth phase were selected and digested with trypsin, then were prepared into a 4 to 5×10^4/ml cell suspension by a medium containing 10% fetal bovine serum. And the cell suspension was inoculated in a 96-well culture plate, and each well was 100 μL. The 96-well culture plate was cultured at 37° C. and 5% CO2 for 24 hours. The experimental group was replaced with a new culture medium containing different concentrations of the sample to be tested, namely, isovaleryl spiramycin I, isovaleryl spiramycin II, or isovaleryl spiramycin III, while the control group was replaced with a culture medium containing the same volume of solvent. Each group was set up with 3 parallel wells that were cultured at 37° C. and 5% CO2 for 48 hours. After the supernatant was removed, the wells were washed carefully for 3 times with PBS. And 100 μL of freshly prepared culture medium containing 0.5 mg/ml MTT was added to each well for continuous incubation for 4 hours at 37° C. After the supernatant was removed carefully, 150 μL of DMSO was added to each well, and after the material was mixed for 10 minutes with a micro-oscillator, the optical density value was measured at 492 nm with a microplate reader.
(§3) The inhibition rate of the medicament on tumor cell growth is calculated according to the following formula:
(§4) Tumor cell growth inhibition rate (%)=[A492 (negative control)−A492 (dosing group)]/A492 (negative control)×100%
(§5) And the half-inhibitory concentration (IC50) of the sample is determined therefrom.

[2] = tested on: human gastric adenocarcinoma cell SGC7901; conditions: SGC-7901, MTT, 48 hours
Method: as §1, §2, §3, §4, §5

[3] = tested on: human glioblastoma cell A172; conditions: A172, MTT, 48 hours
Method: as §1, §2, §3, §4, §5

[4] = tested on: human non-small cell lung cancer cells A549; conditions: A549, MTT, 48 hours
Method: as §1, §2, §3, §4, §5

[5] = tested on: human prostate cancer cell PC3; conditions: PC3, MTT, 48 hours
Method: as §1, §2, §3, §4, §5

[6] = tested on: human renal cell adenocarcinoma cell 769-P; conditions: MTT, 48 hours
Method: as §1, §2, §3, §4, §5

[7] = tested on: transplanted tumor of human gastric adenocarcinoma cell SGC7901; assay: SGC7901 transplanted tumor in nude mice
Method: (§6) Then cell concentration was adjusted to 1×10^7/ml with matrigel, then each nude mouse was inoculated subcutaneously with 0.2 ml of cells at its right armpit and recorded as the first day of inoculation. When the tumor grows to be greater than or equal to 100 mm^3, the mice were randomly divided into 11 groups with 6 mice in each group: a model group, a cyclophosphamide group, isovaleryl spiramycin I groups with doses of 25, 50 and 100 mg/kg, isovaleryl spiramycin II groups with doses of 25, 50 and 100 mg/kg, and isovaleryl spiramycin III groups with doses of 25, 50 and 100 mg/kg. Each group was continuously administered intragastrically for 30 days with a dose of 20 ml/kg. The mice were sacrificed the next day after drug withdrawal and the indicators were tested. The long diameter and short diameter of the tumor, and the body weight of each mouse were recorded every 3 days from drug administration to nude mouse sacrifice.
(§7) The body weight of the nude mice and the long diameter (a) and short diameter (b) of the transplanted tumor were measured every 3 days, and the tumor volume (v), relative tumor volume (RTV) and relative tumor proliferation rate (T/C) are calculated respectively according to the following formulas, wherein V=a×b^2/2; RTV=V/V0 (V0 is the tumor volume before administration, V is the tumor volume before sacrifice), and T/C (%)=treatment group RTV/model control group RTV×100%.
(§8) Each mouse was weighed and sacrificed. After the tumor was completely stripped off from the body of the mouse, the non-tumor tissues such as blood stains and fat were removed to weigh the tumor and calculate the tumor growth inhibition rate. The average tumor weight of each group of mice is used as an indicator of efficacy. Tumor growth inhibition rate (%)=(1−the average tumor weight of the treatment group/the average tumor weight of the model group)×100%.

[8] = tested on: transplanted tumor of human non-small cell lung cancer cell A549; assay: A549 transplanted tumor in nude mice; conditions: for Tumor Volume (mm3) (d 1): d1
Method: as §6, with “A549 cells in a logarithmic growth phase were taken and subjected to a trypan blue exclusion experiment showing that the cell viability was more than 95%, then the cells were subjected to trypsinization, centrifugation, and supernatant removal. Then” for “Then”
as §7, §8

[9] = SGC7901, 12.5 mg/kg (low dose) i.g. 30 days
[10] = SGC7901, 25 mg/kg (medium dose) i.g. 30 days
[11] = SGC7901, 50 mg/kg (high dose) i.g. 30 days
[12] = A549, high dose (100 mg/kg in method) i.g. 30 days
[13] = A549, low dose (25 mg/kg in method) i.g. 30 days
[14] = A549, medium dose (50 mg/kg in method) i.g. 30 days

CCC(=O)O[C@@H]1CC(=O)O[C@H](C)C/C=C/C=C/[C@H](O[C@H]2CC[C@H](N(C)C)[C@@H](C)O2)[C@H](C)C[C@H](CC=O)[C@H](O[C@@H]2O[C@H](C)[C@@H](O[C@H]3C[C@@](C)(O)[C@@H](OC(=O)CC(C)C)[C@H](C)O3)[C@H](N(C)C)[C@H]2O)[C@H]1OC [Isovaleryl spiramycin III, isovaleryl spiramycin III]
IC50 [1]: 22.68 ± 2.32 µg/mL (≈ 23.1 µM) | IC50 [2]: 17.26 ± 0.79 µg/mL (≈ 17.6 µM) | IC50 [3]: 16.17 ± 0.54 µg/mL (≈ 16.4 µM) | IC50 [4]: 28.84 ± 1.73 µg/mL (≈ 29.3 µM) | IC50 [5]: 16.37 ± 0.27 µg/mL (≈ 16.6 µM) | IC50 [6]: 10.75 ± 0.56 µg/mL (≈ 10.9 µM) | Inhibition Rate (tumor growth inhibition rate) [7, 9]: 21.68% | Relative Tumor Proliferation Rate (T/C) [7, 9]: 65.48% | Relative Tumor Volume (RTV) [7, 9]: 5.52 ± 4.03 | Tumor Volume (d 1) [7, 9]: 186.22 ± 80.26 mm3 | Tumor Volume (d 30) [7, 9]: 1326.06 ± 96.10 mm3 | Tumor Weight [7, 9]: 1.23 ± 0.70 g | Inhibition Rate (tumor growth inhibition rate) [7, 10]: 41.13% | Relative Tumor Proliferation Rate (T/C) [7, 10]: 49.44% | Relative Tumor Volume (RTV) [7, 10]: 3.77 ± 6.51 | Tumor Volume (d 1) [7, 10]: 274.12 ± 83.50 mm3 | Tumor Volume (d 30) [7, 10]: 1473.96 ± 798.75 mm3 | Tumor Weight [7, 10]: 0.92 ± 0.40 g | Inhibition Rate (tumor growth inhibition rate) [7, 11]: 63.34% | Relative Tumor Proliferation Rate (T/C) [7, 11]: 30.34% | Relative Tumor Volume (RTV) [7, 11]: 3.66 ± 1.35 | Tumor Volume (d 1) [7, 11]: 295.39 ± 188.69 mm3 | Tumor Volume (d 30) [7, 11]: 974.67 ± 839.14 mm3 | Tumor Weight [7, 11]: 0.58 ± 0.52 g | tumor volume and relative tumor volume compared with the model group ([7]; SGC7901, low, medium and high doses, P<0.05): significantly lower | mouse weight compared with the model group ([7]; mouse, in vivo): no significant changes | Relative Tumor Proliferation Rate (T/C) [8, 12]: 33.04% | tumor growth inhibition rate [8, 12]: 66.53% | Relative Tumor Proliferation Rate (T/C) [8, 13]: 65.93% | tumor growth inhibition rate [8, 13]: 37.99% | tumor volume and relative tumor volume compared with the model group ([8]; A549, low, medium and high doses, P<0.05): significantly lower | Relative Tumor Proliferation Rate (T/C) [8, 14]: 47.25% | tumor growth inhibition rate [8, 14]: 55.95% | Inhibition Rate (%) ([8]; A549 nude mice, 25 mg/kg): 37.99% | Relative Tumor Proliferation Rate (T/C) ([8]; A549 nude mice, 25 mg/kg): 65.93% | Relative Tumor Volume (RTV) ([8]; A549 nude mice, 25 mg/kg): 10.70 ± 2.64 | Tumor Weight ([8]; A549 nude mice, 25 mg/kg): 1.49 ± 0.42 g | Tumor Volume (mm3) (d 1) ([8]; A549 nude mice, 25 mg/kg): 113.96 ± 6.85 mm3 | Tumor Volume (mm3) (d30) ([8]; A549 nude mice, 25 mg/kg): 1216.86 ± 295.20 mm3 | Inhibition Rate (%) ([8]; A549 nude mice, 50 mg/kg): 55.95% | Relative Tumor Proliferation Rate (T/C) ([8]; A549 nude mice, 50 mg/kg): 47.25% | Relative Tumor Volume (RTV) ([8]; A549 nude mice, 50 mg/kg): 7.67 ± 2.86 | Tumor Weight ([8]; A549 nude mice, 50 mg/kg): 1.06 ± 0.49 g | Tumor Volume (mm3) (d 1) ([8]; A549 nude mice, 50 mg/kg): 113.65 ± 11.57 mm3 | Tumor Volume (mm3) (d30) ([8]; A549 nude mice, 50 mg/kg): 856.65 ± 281.96 mm3 | Inhibition Rate (%) ([8]; A549 nude mice, 100 mg/kg): 66.53% | Relative Tumor Proliferation Rate (T/C) ([8]; A549 nude mice, 100 mg/kg): 33.04% | Relative Tumor Volume (RTV) ([8]; A549 nude mice, 100 mg/kg): 5.36 ± 3.01 | Tumor Weight ([8]; A549 nude mice, 100 mg/kg): 0.80 ± 0.43 g | Tumor Volume (mm3) (d 1) ([8]; A549 nude mice, 100 mg/kg): 118.69 ± 8.13 mm3 | Tumor Volume (mm3) (d30) ([8]; A549 nude mice, 100 mg/kg): 632.73 ± 350.89 mm3 | mouse weight compared with the model group ([8]; mouse, in vivo): no significant changes | Body Weight (g) (d1) ([8]; mouse, in vivo, 25 mg/kg): 21.68 ± 1.25 g | Body Weight (g) (d30) ([8]; mouse, in vivo, 25 mg/kg): 23.97 ± 1.01 g | Body Weight (g) (d1) ([8]; mouse, in vivo, 50 mg/kg): 21.99 ± 1.40 g | Body Weight (g) (d30) ([8]; mouse, in vivo, 50 mg/kg): 24.36 ± 1.73 g | Body Weight (g) (d1) ([8]; mouse, in vivo, 100 mg/kg): 20.57 ± 2.28 g | Body Weight (g) (d30) ([8]; mouse, in vivo, 100 mg/kg): 23.53 ± 1.63 g
